# Results from patent US5461044A, “Cephalosporin derivatives” (Meiji Seika Kaisha, Ltd., priority 1991, dated 1995).
# Read-outs that look alike come from different tables or passages of the source.
# Key:
# [1] = Concentration in blood upon subcutaneous injection in mice (HPLC, serum); format: in vivo, mice of ICR strain; settings: sc, male ICR mice, 0.5 mg per mouse; for half-life / AUC: Gauss-Newton method; for AUC: read-out: AUC (Area under the plasma concentration-time curve); for Cmax: HPLC, read-out: Maximum concentration in blood
# Procedure: Test compounds used are as follows:
# The test procedure used was as follows. That is, 5 mice of ICR strain (male, 4-weeks-aged, 1 mouse in each group/at the time of collection of blood samples) were used as test animal and 0.5 mg of each test compound dissolved in 0.2 ml of a purified water sterilized for injection was subcutaneously injected to each mouse. Blood samples were collected from each mouse 5 minutes, 15 minutes, 30 minutes, 1 hour and 2 hours after the aministration of test compound. Each blood sample as collected was post-treated in a usual manner and the concentration of the cephem compound in the serum was then quantitatively determined by the use of HPLC (High Performance Liquid Chromatography). A half-life value and AUC which were pharmacokinetic parameters were calculated by the Gauss-Newton method.
# AUC means "Area under the plasma concentration-time curve".
# [2] = system: Escherichia coli NIHJ JC-2; experiment: Minimum growth inhibition concentration, standard serial dilution method; format: cell-based
# Procedure: (§1) In this Test Example, the antibacterial activity of some exemplary compounds indicated below and chosen from amongst the compounds of the general formula (I) according to this invention is illustrated by determining their minimum growth inhibition concentrations to various bacteria as measured by a standard serial dilution method. In this case, the determination was carried out by inoculating 10^6 CFU/ml of test bacteria to a culture medium N for sensitive disc (as prepared by Nissui Pharmaceutical Co., Ltd.), incubating the bacteria at 35° C. for 18 to 20 hours, and then evaluating the bacterial growth. Test compounds used are as follows:
# (§2) The measured values of the minimum growth inhibition concentrations ([…]) of the above-mentioned compounds A, B and C are shown in Table 1.
# [3] = system: Proteus vulgaris GN76; experiment: as above; format: cell-based
# Procedure: as §1, §2
# [4] = system: Klebsiella pneumoniae PCI602; experiment: as above; format: cell-based
# Procedure: as §1, §2
# [5] = system: Marganella morganii 1510/S-1; experiment: as above; format: cell-based; settings: read-out: Minimum growth inhibition concentration
# Procedure: as §1, §2
# [6] = system: Staphylococcus epidermidis ATCC14990; experiment: as above; format: cell-based; settings: 10^6 CFU/ml, 35° C., 18 to 20 hours
# Procedure: as §1, §2
# [7] = system: Staphylococcus aureus 209P JC-1; experiment: as above; format: cell-based; settings: read-out: Minimum growth inhibition concentration
# Procedure: as §1, §2
# [8] = system: Staphylococcus aureus M126; experiment: as above; format: cell-based; settings: Staphylococcus aureus M126 (methicillin-resistant); 10^6 CFU/ml, 35° C., 18 to 20 hours
# Procedure: as §1, §2
# (§3) Note: (*) means methicillinresistant Staphylococus aureus.
# [9] = system: Staphylococcus aureus M133; experiment: as above; format: cell-based; settings: Staphylococcus aureus M133 (methicillin-resistant); 10^6 CFU/ml, 35° C., 18 to 20 hours
# Procedure: as §1, §2, §3
# [10] = Toxicity (LD50) on intravenous administration in mice; settings: mouse, in vivo
# Procedure: The cephalosporin derivative of the general formula (I) according to this invention can safely be administered to mammals because it is of low toxicity. […] The new cephalosporin derivative of this invention may be administered orally at a unit dose of 100 mg to 250 mg to an adult human patient four times a day, for a guideline. However, precise dosage of the new cephalosporin derivative of this invention is determinable through preliminary routine experiments, depending on the body weight, ages, sex and other various parameters of patients as well as the nature of the bacterial infections to be treated, and so on.
# [11] = Escherichia coli, NIHJJC2, read-out: Minimum growth inhibition concentration
# [12] = Proteus vulgaris GN76, 10^6 CFU/ml, 35° C., 18 to 20 hours, read-out: Minimum growth inhibition concentration
# [13] = Klebsiella pneumoniae, PCI602, read-out: Minimum growth inhibition concentration
Compound,half-life [1],AUC [1],Cmax [1],"MIC [2, 11]","MIC [3, 12]","MIC [4, 13]",MIC [5],MIC [6],MIC [7],MIC [8],MIC [9],LD50 [10],"MIC ([3]; Proteus vulgaris, GN76, read-out: Minimum growth inhibition concentration)","MIC ([2]; NIHJJC2, Escherichia coli NIHJ JC-2, 10^6 CFU/ml, 35° C., 18 to 20 hours, read-out: Minimum growth inhibition concentration)","MIC ([4]; Klebsiella pneumoniae PCI602, 10^6 CFU/ml, 35° C., 18 to 20 hours, read-out: Minimum growth inhibition concentration)"
"Nc1nc(/C(=N/OCC(=O)O)C(=O)NC2C(=O)N3C(C(=O)O)=C(Sc4nc5ccccc5s4)CSC23)cs1 (stereo not shown) [Compound C, 7-[(Z)-2-(2-aminothiazol-4-yl)-2carboxymethoxyiminoacetamido]-3-(benzothiazol-2-yl)thio3-cephem-4-carboxylic acid]",55.2 min,131000 ng·h/mL,80.8 µg/mL,3.13 µg/mL,0.1 µg/mL,3.13 µg/mL,0.78 µg/mL,1.56 µg/mL,3.13 µg/mL,50 µg/mL,12.5 µg/mL,–,–,–,–
"CO/N=C(\C(=O)NC1C(=O)N2C(C(=O)O)=C(Sc3nc4ccccc4s3)CS[C@H]12)c1csc(N)n1 (stereo partly shown) [Compound A, 7-[(Z)-2-(2-aminothiazol-4-yl)-2methoxyiminoacetamido]-3-(benzothiazol-2-yl)thio-3-cephem-4-carboxylic acid]",42 min,62500 ng·h/mL,51.6 µg/mL,3.13 µg/mL,–,3.13 µg/mL,0.78 µg/mL,0.2 µg/mL,0.39 µg/mL,6.25 µg/mL,3.13 µg/mL,1000 to 1500 mg/kg,3.13 µg/mL,–,–
"Nc1nc(/C(=N/O)C(=O)NC2C(=O)N3C(C(=O)O)=C(Sc4nc5ccccc5s4)CS[C@H]23)cs1 (stereo partly shown) [B, 7-[(Z)-2-(2-aminothiazol-4-yl)-2hydroxyiminoacetamido]-3-(benzothiazol-2-yl)thio-3-cephem-4-carboxylic acid]",–,–,–,–,100 µg/mL,–,3.13 µg/mL,0.2 µg/mL,0.2 µg/mL,3.13 µg/mL,1.56 µg/mL,–,–,25 µg/mL,25 µg/mL
